# Key:
# IRAK1 = target: T1, IRAK1 (Homo sapiens, UniProt P51617); assay: KAM-matrix competition in K562 lysate; format: binding;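 on 0.001 uM KAM: median log10 fold change of treatment over DMSO control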;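 on 0.01 uM KAM: median log10 fold change of treatment over DMSO control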;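 on 0.1 uM KAM: median log10 fold change of treatment over DMSO control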;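 on 1 uM KAM: median log10 fold change of treatment over DMSO control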;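 on 10 uM KAM: median log10 fold change of treatment over DMSO control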
# T1 construct: endogenous in cells; host or cells: K562
# Procedure: (§1) Supplement 12953_2017_125_MOESM1_ESM.zip/MS_Supp Info.xlsx, sheet "KAM" | column: 10 uM KAM; 1 uM KAM; 0.1 uM KAM; 0.01 uM KAM; 0.001 uM KAM; RB50
# [1] = KAM-matrix competition in K562 lysate; format: binding, human; conditions: read-out: RB50 (the source's name)
# Procedure: as §1
# MAP4K2 = target: T2, MAP4K2 (Homo sapiens, UniProt Q12851); assay: KAM-matrix competition in K562 lysate; format: binding
# T2 construct: endogenous in cells; host or cells: K562
# T2 sequence (Q12851 1-820): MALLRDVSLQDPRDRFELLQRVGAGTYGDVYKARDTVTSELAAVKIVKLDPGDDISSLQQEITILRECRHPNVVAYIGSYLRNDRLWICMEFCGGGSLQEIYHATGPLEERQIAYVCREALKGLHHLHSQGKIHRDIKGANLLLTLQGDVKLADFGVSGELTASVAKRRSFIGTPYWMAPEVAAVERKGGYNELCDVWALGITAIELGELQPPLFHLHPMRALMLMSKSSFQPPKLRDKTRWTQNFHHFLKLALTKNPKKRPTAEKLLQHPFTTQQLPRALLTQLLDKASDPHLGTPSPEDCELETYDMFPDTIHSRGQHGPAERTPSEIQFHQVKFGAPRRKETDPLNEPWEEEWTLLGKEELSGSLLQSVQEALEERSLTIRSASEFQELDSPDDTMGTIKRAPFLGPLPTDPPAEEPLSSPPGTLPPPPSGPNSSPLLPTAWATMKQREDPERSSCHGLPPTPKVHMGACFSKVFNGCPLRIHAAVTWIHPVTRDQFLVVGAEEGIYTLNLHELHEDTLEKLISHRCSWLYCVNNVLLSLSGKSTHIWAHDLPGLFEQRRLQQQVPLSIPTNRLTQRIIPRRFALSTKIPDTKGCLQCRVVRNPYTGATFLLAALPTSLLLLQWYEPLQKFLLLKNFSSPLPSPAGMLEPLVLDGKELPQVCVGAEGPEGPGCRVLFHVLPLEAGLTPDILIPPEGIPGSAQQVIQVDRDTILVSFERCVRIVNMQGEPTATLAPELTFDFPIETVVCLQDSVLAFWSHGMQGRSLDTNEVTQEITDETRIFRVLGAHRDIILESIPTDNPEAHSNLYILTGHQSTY
# Procedure: as §1
# MAST2 = target: T3, MAST2 (Homo sapiens, UniProt Q6P0Q8); assay: KAM-matrix competition in K562 lysate; format: binding;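 on 0.001 uM KAM: median log10 fold change of treatment over DMSO control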;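 on 0.01 uM KAM: median log10 fold change of treatment over DMSO control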;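 on 0.1 uM KAM: median log10 fold change of treatment over DMSO control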;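 on 1 uM KAM: median log10 fold change of treatment over DMSO control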;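 on 10 uM KAM: median log10 fold change of treatment over DMSO control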
# T3 construct: endogenous in cells; host or cells: K562 cells (combined S0.8 and P0.8 lysate)
# T3 sequence (Q6P0Q8 whole entry): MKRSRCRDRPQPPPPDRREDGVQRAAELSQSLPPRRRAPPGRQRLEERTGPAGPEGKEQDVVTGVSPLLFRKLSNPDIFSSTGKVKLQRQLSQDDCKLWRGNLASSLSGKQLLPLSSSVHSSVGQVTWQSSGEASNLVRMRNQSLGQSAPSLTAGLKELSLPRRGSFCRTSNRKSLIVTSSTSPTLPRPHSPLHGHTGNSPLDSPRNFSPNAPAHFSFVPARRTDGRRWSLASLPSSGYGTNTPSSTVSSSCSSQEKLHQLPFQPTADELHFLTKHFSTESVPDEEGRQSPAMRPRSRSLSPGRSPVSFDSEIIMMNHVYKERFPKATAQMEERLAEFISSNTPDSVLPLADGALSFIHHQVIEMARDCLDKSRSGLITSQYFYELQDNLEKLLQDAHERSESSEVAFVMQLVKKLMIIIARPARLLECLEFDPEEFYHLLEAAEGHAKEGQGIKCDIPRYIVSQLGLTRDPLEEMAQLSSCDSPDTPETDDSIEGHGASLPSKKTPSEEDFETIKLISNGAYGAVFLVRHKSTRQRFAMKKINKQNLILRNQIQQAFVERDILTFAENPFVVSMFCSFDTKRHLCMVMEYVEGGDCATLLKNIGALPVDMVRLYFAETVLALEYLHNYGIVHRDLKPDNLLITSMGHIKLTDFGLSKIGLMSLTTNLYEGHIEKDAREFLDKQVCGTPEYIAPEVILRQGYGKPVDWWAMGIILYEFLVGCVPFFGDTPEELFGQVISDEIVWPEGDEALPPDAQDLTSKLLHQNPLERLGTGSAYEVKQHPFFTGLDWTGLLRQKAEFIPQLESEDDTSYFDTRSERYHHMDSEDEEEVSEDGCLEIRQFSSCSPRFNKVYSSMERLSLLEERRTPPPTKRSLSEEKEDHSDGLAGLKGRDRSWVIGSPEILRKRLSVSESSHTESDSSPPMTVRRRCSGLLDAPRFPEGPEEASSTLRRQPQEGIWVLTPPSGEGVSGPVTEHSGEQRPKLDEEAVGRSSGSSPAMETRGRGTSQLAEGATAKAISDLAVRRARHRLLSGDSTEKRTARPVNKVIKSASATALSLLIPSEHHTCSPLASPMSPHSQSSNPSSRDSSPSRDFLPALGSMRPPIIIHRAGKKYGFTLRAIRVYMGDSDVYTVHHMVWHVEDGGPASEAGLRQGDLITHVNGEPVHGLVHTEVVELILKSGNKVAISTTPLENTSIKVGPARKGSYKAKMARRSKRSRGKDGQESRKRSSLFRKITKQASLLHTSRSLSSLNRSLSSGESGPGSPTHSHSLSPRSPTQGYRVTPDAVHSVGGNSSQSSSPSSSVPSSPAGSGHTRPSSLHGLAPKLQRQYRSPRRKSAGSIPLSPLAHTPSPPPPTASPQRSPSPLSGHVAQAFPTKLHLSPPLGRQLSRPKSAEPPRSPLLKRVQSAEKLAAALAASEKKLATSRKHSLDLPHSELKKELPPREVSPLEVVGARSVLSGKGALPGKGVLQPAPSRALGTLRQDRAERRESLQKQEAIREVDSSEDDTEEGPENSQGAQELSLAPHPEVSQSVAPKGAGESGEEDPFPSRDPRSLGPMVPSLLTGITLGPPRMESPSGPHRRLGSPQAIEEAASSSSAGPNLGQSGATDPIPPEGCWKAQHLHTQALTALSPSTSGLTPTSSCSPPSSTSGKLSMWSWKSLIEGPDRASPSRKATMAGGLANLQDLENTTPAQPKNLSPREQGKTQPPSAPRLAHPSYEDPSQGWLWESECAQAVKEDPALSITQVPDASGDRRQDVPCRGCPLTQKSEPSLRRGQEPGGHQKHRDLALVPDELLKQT
# Procedure: as §1
# TNK2 = target: T4, TNK2 (Homo sapiens, UniProt Q07912); assay: KAM-matrix competition in K562 lysate; format: binding;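 on 0.001 uM KAM: median log10 fold change of treatment over DMSO control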;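 on 0.01 uM KAM: median log10 fold change of treatment over DMSO control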;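 on 0.1 uM KAM: median log10 fold change of treatment over DMSO control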;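 on 1 uM KAM: median log10 fold change of treatment over DMSO control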;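 on 10 uM KAM: median log10 fold change of treatment over DMSO control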
# T4 construct: endogenous in cells; host or cells: K562
# Procedure: as §1
# HIPK2 = target: T5, HIPK2 (Homo sapiens, UniProt Q9H2X6); assay: KAM-matrix competition in K562 lysate; format: binding
# T5 construct: endogenous in cells; host or cells: K562 cell lysate
# T5 sequence (Q9H2X6 whole entry): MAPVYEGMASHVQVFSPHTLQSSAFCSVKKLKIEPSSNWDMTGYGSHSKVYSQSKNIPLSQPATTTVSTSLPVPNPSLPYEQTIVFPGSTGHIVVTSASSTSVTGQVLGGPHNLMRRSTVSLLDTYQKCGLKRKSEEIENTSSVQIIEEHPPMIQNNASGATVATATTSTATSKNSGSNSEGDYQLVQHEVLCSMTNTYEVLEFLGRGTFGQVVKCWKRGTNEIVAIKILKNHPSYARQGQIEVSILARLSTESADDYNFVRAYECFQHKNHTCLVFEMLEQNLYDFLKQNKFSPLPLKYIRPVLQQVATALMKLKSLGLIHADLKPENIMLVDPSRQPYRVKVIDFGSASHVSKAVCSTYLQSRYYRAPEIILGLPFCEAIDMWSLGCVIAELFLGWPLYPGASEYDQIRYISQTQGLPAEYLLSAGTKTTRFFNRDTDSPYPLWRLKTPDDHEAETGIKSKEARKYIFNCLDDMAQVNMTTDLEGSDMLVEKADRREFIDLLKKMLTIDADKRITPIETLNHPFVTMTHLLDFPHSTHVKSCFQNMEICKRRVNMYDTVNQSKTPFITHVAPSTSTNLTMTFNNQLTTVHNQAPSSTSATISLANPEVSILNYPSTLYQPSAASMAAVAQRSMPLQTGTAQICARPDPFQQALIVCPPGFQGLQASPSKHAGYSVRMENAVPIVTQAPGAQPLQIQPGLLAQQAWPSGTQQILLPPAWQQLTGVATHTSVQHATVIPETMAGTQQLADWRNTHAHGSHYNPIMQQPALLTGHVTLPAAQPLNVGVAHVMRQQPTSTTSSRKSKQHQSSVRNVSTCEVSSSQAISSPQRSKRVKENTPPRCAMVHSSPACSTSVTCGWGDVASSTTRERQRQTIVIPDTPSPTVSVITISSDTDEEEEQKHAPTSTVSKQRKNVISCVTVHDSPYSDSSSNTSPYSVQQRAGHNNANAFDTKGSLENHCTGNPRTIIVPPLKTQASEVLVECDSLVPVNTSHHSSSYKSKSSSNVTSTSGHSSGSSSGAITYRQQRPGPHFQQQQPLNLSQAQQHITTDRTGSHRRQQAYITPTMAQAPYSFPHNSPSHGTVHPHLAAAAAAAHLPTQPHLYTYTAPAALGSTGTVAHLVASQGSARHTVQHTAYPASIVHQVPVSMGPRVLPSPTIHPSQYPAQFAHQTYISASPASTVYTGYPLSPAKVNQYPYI
# Procedure: as §1
# MAP3K7 = target: T6, MAP3K7 (Homo sapiens, UniProt O43318); assay: KAM-matrix competition in K562 lysate; format: binding
# T6 construct: endogenous in cells; host or cells: K562 cells (lysate)
# T6 sequence (O43318 1-606): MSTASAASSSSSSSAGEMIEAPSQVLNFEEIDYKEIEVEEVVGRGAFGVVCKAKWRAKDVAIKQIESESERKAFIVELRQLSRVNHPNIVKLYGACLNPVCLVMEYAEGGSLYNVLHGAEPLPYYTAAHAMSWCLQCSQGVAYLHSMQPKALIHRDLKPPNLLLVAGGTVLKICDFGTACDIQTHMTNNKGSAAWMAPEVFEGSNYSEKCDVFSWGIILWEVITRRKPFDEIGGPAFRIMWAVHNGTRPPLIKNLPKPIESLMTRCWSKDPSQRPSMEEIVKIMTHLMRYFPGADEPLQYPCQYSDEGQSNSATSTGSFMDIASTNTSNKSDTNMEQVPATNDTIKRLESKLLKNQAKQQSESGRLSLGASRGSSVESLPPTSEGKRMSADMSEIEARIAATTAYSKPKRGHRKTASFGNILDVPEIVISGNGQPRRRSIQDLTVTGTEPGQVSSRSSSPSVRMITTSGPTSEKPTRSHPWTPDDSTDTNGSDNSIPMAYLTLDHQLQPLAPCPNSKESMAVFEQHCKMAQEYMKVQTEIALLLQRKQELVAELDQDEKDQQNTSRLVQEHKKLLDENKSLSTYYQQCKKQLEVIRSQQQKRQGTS
# Procedure: as §1
# RPS6KA1 = target: T7, RPS6KA1 (Homo sapiens, UniProt Q15418); assay: KAM-matrix competition in K562 lysate; format: binding;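 on 0.001 uM KAM: median log10 fold change of treatment over DMSO control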;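 on 0.01 uM KAM: median log10 fold change of treatment over DMSO control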;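 on 0.1 uM KAM: median log10 fold change of treatment over DMSO control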;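 on 1 uM KAM: median log10 fold change of treatment over DMSO control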;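 on 10 uM KAM: median log10 fold change of treatment over DMSO control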
# T7 construct: endogenous in cells; host or cells: K562
# T7 sequence (Q15418 whole entry): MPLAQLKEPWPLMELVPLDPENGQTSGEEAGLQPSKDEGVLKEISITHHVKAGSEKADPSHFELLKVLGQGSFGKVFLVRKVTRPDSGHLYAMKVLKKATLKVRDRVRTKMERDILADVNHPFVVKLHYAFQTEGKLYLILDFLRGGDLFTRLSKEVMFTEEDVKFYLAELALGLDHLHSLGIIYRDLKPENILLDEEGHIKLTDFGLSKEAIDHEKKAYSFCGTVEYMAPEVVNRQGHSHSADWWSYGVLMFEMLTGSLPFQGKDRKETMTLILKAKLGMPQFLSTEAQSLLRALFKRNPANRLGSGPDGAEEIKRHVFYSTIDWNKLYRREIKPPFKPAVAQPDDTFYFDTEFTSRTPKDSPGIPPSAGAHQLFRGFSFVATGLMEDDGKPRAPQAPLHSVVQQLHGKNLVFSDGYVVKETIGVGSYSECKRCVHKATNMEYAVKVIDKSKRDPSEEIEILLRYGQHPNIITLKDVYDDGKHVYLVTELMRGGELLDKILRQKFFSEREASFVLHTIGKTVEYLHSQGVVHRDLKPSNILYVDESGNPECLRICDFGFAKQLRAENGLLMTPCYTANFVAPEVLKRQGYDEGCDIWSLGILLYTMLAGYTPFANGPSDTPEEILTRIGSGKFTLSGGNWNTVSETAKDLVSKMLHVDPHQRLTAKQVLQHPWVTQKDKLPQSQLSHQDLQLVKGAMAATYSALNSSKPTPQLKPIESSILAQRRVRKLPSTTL
# Procedure: as §1
# MAP2K2 = target: T8, MAP2K2 (Homo sapiens, UniProt P36507); assay: KAM-matrix competition in K562 lysate; format: binding
# T8 construct: endogenous in cells; host or cells: K562
# T8 sequence (P36507 whole entry): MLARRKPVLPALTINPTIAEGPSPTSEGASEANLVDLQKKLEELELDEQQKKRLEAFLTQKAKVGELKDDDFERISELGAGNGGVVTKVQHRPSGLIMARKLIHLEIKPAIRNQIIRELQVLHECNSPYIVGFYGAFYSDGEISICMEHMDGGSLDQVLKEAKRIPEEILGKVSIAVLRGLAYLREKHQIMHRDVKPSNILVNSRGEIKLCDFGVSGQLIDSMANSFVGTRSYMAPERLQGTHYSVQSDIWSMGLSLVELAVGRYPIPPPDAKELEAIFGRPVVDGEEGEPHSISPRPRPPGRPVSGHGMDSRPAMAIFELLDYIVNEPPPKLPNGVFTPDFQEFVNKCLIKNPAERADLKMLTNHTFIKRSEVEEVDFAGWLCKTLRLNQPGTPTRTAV
# Procedure: as §1
# PAK6 = target: T9, PAK6 (Homo sapiens, UniProt Q9NQU5); assay: KAM-matrix competition in K562 lysate; format: binding
# T9 construct: endogenous in cells; host or cells: K562
# T9 sequence (Q9NQU5 whole entry): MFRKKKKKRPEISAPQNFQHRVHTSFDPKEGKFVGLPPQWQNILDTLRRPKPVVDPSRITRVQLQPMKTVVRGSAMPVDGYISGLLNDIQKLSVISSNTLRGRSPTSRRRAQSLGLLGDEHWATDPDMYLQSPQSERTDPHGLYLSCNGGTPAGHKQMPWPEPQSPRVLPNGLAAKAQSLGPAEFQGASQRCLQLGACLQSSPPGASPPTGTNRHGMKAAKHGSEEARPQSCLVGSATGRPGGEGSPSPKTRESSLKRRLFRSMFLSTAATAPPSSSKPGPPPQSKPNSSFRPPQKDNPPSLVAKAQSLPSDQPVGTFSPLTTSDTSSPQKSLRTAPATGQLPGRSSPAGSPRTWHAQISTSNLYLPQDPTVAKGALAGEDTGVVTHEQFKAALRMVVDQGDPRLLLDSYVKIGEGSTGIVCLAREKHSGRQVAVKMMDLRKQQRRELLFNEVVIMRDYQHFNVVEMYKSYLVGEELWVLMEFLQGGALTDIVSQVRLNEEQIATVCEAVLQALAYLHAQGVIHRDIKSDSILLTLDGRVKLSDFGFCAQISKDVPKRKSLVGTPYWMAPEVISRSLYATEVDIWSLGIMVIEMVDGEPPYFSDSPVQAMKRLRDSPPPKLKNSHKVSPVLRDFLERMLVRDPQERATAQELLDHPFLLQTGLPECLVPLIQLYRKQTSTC
# Procedure: as §1
# [2] = KAM 0.001-10 uM, read-out: RB50 (the source's name)
# [3] = read-out: RB50 (the source's name)
compound,measurement,setting,value
N#CCc1ccc(Nc2nc(NCCCN)cc(Nc3cc(C4CC4)[nH]n3)n2)cc1 [KAM],IC50,IRAK1; [2],6030 nM
same,0.001 uM KAM,IRAK1; relative to 0 uM KAM = 0,-0.01461
same,0.01 uM KAM,IRAK1; relative to 0 uM KAM = 0,-0.006177
same,0.1 uM KAM,IRAK1; relative to 0 uM KAM = 0,-0.1059
same,1 uM KAM,IRAK1; relative to 0 uM KAM = 0,-0.1722
same,10 uM KAM,IRAK1; relative to 0 uM KAM = 0,-0.3131
same,IC50,[1],435 nM
same,median Log10 fold change,MAP4K2; 0.001 uM KAM,-0.01936
same,median Log10 fold change,MAP4K2; 0.01 uM KAM,-0.0303
same,median Log10 fold change,MAP4K2; 0.1 uM KAM,-0.2006
same,median Log10 fold change,MAP4K2; 1 uM KAM,-0.2485
same,median Log10 fold change,MAP4K2; 10 uM KAM,-0.341
same,IC50,MAP4K2; [3],2230 nM
same,IC50,MAST2; [2],> 10000 nM
same,0.001 uM KAM,MAST2; relative to 0 uM KAM = 0,-0.0424
same,0.01 uM KAM,MAST2; relative to 0 uM KAM = 0,0.0396
same,0.1 uM KAM,MAST2; relative to 0 uM KAM = 0,-0.03782
same,1 uM KAM,MAST2; relative to 0 uM KAM = 0,-0.1315
same,10 uM KAM,MAST2; relative to 0 uM KAM = 0,-0.1411
same,IC50,TNK2; [2],> 10000 nM
same,0.001 uM KAM,TNK2; relative to 0 uM KAM = 0,0.001973
same,0.01 uM KAM,TNK2; relative to 0 uM KAM = 0,-0.007052
same,0.1 uM KAM,TNK2; relative to 0 uM KAM = 0,-0.06006
same,1 uM KAM,TNK2; relative to 0 uM KAM = 0,-0.2026
same,10 uM KAM,TNK2; relative to 0 uM KAM = 0,-0.2086
same,median Log10 fold change,HIPK2; 0.001 uM KAM,-0.003211
same,median Log10 fold change,HIPK2; 0.01 uM KAM,0.02239
same,median Log10 fold change,HIPK2; 0.1 uM KAM,-0.07372
same,median Log10 fold change,HIPK2; 1 uM KAM,-0.2033
same,median Log10 fold change,HIPK2; 10 uM KAM,-0.3492
same,IC50,HIPK2; [3],4260 nM
same,median Log10 fold change,MAP3K7; 0.001 uM KAM,-0.02589
same,median Log10 fold change,MAP3K7; 0.01 uM KAM,-0.01486
same,median Log10 fold change,MAP3K7; 0.1 uM KAM,-0.1357
same,median Log10 fold change,MAP3K7; 1 uM KAM,-0.3563
same,median Log10 fold change,MAP3K7; 10 uM KAM,-0.511
same,IC50,MAP3K7; [3],786 nM
same,IC50,RPS6KA1; [2],> 10000 nM
same,0.001 uM KAM,RPS6KA1; relative to 0 uM KAM = 0,-0.05187
same,0.01 uM KAM,RPS6KA1; relative to 0 uM KAM = 0,0.03804
same,0.1 uM KAM,RPS6KA1; relative to 0 uM KAM = 0,-0.06196
same,1 uM KAM,RPS6KA1; relative to 0 uM KAM = 0,-0.09025
same,10 uM KAM,RPS6KA1; relative to 0 uM KAM = 0,-0.1209
same,median Log10 fold change,MAP2K2; 0.001 uM KAM,-0.0579
same,median Log10 fold change,MAP2K2; 0.01 uM KAM,-0.04236
same,median Log10 fold change,MAP2K2; 0.1 uM KAM,-0.2079
same,median Log10 fold change,MAP2K2; 1 uM KAM,-0.4376
same,median Log10 fold change,MAP2K2; 10 uM KAM,-0.4638
same,IC50,MAP2K2; [3],360 nM
same,median Log10 fold change,PAK6; 0.001 uM KAM,-0.09371
same,median Log10 fold change,PAK6; 0.01 uM KAM,0.03145
same,median Log10 fold change,PAK6; 0.1 uM KAM,-0.196
same,median Log10 fold change,PAK6; 1 uM KAM,-0.3777
same,median Log10 fold change,PAK6; 10 uM KAM,-0.6349
same,IC50,PAK6; [3],519 nM

# From paper PMC5513037, “Examining the influence of specificity ligands and ATP-competitive ligands on the overall effectiveness of bivalent kinase inhibitors” (Proteome Science, 2017)
